Measured values reported in DBAASP.
Values after ≈ are worked out from the molar mass of the structure shown. One block for each molecule: values may come before it.

Key:
Assay in all cases: ≥ marks a high value that may be exact or a test limit, other limits are often not marked, values filed in µg/mL are converted to µM
[1] = test system: Listeria grayi DSM 20601
[2] = test system: Staphylococcus epidermidis DSM 3269
[3] = test system: Candida albicans ATCC 2002
[4] = test system: Candida albicans ATCC 90028
[5] = test system: Candida parapsilosis ATCC 22019
[6] = test system: Enterobacter cloacae ATCC 13047
[7] = test system: Enterococcus faecalis ATCC 29212
[8] = test system: Escherichia coli ATCC 25922
[9] = test system: Escherichia coli IS117#
[10] = test system: Escherichia coli IS37#
[11] = test system: Klebsiella pneumoniae ATCC 700603
[12] = test system: Klebsiella pneumoniae IS59#
[13] = test system: Pseudomonas aeruginosa ATCC 27853
[14] = test system: Pseudomonas aeruginosa CMCCB 1010
[15] = test system: Pseudomonas aeruginosa IS350#
[16] = test system: Shigella dysenteriae
[17] = test system: Staphylococcus aureus ATCC 25923
[18] = test system: Salmonella enterica subsp. enterica serovar Typhimurium ATCC 14028
[19] = test system: Staphylococcus aureus ATCC 29313
[20] = test system: Acinetobacter baumannii AB1
[21] = test system: Acinetobacter baumannii AB2
[22] = test system: Acinetobacter baumannii AB3
[23] = test system: Acinetobacter baumannii ATCC 19606
[24] = test system: Pseudomonas aeruginosa 1
[25] = test system: Pseudomonas aeruginosa 5
[26] = test system: Escherichia coli K12 MG1655
[27] = test system: Staphylococcus aureus 68 HER 1049
[28] = test system: Carnobacterium maltaromaticum UI49
[29] = test system: Lacticaseibacillus casei NCDO 2713
[30] = test system: Lacticaseibacillus casei subsp. casei NCDO 161
[31] = test system: Lactiplantibacillus plantarum 965
[32] = test system: Lactiplantibacillus plantarum UI50
[33] = test system: Latilactobacillus sakei 706
[34] = test system: Latilactobacillus sakei NCDO 2714
[35] = test system: Pediococcus pentosaceus NCDO 990
[36] = test system: Pediococcus pentosaceus Pac1.0
[37] = test system: Weissella viridescens NCDO 1655

MIC [1]: 30 µM (≈ 48.1 µg/mL)
MIC [2]: 30 µM (≈ 48.1 µg/mL)
Structure (SMILES): CC[C@H](C)[C@H](NC(=O)CNC(=O)[C@H](CO)NC(=O)[C@@H](N)CS)C(=O)N[C@H](C(=O)N[C@@H](CCCCN)C(=O)N[C@@H](CCC(N)=O)C(=O)N[C@H](C(=O)N[C@@H](CS)C(=O)N[C@H](C(=O)N[C@@H](CS)C(=O)N[C@@H](Cc1ccc(O)cc1)C(=O)N[C@@H](CCCN=C(N)N)C(=O)N[C@@H](CCCCN)C(=O)O)[C@@H](C)O)[C@@H](C)O)[C@@H](C)CC [CSGIIKQTCTCYRK]

MIC [3]: 0.2 µM (≈ 0.5 µg/mL)
MIC [4]: 4 µM (≈ 9.99 µg/mL)
MIC [5]: 2 µM (≈ 5 µg/mL)
MIC [6]: 2 µM (≈ 5 µg/mL)
MIC [7]: 4 µM (≈ 9.99 µg/mL)
MIC [8]: 0.999 µM (≈ 2.5 µg/mL)
MIC [9]: 20 µM (≈ 50 µg/mL)
MIC [10]: 20 µM (≈ 50 µg/mL)
MIC [11]: 4 µM (≈ 9.99 µg/mL)
MIC [12]: 2 µM (≈ 5 µg/mL)
MIC [13]: 2 µM (≈ 5 µg/mL)
MIC [14]: 4 µM (≈ 9.99 µg/mL)
MIC [15]: 4 µM (≈ 9.99 µg/mL)
MIC [16]: 4 µM (≈ 9.99 µg/mL)
MIC [17]: 0.999 µM (≈ 2.5 µg/mL)
Structure (SMILES): CC[C@H](C)[C@@H]1NC(=O)[C@H](C)NC(=O)[C@@H](NC(=O)[C@H](Cc2ccccc2)NC(=O)[C@@H](NC(=O)[C@H](C)NC(=O)[C@@H]2CCCN2C(=O)CNC(=O)[C@@H](NC(=O)[C@H](CCCCN)NC(=O)[C@H](C)NC(=O)[C@H](C)NC(=O)[C@@H](NC(=O)[C@H](CCCN=C(N)N)NC(=O)[C@H](CC(C)C)NC(=O)[C@@H](NC(=O)[C@H](C)NC(=O)[C@@H]2CCCN2C(=O)[C@H](CC(C)C)NC(=O)[C@@H](N)Cc2ccccc2)C(C)C)C(C)C)C(C)C)C(C)C)CSSC[C@@H](C(=O)O)NC(=O)[C@H](CCCCN)NC(=O)[C@H](CCC(N)=O)NC(=O)[C@H]([C@@H](C)O)NC1=O [FLPAVLRVAAKVGPAVFCAITQKC]

MIC [8]: 303 µM (≈ 800 µg/mL)
MIC [11]: > 303 µM
MIC [18]: > 303 µM
Structure (SMILES): CC[C@H](C)[C@H](NC(=O)[C@H](CCCCN)NC(=O)CNC(=O)[C@H](CCSC)NC(=O)[C@H](C)NC(=O)[C@H](Cc1cnc[nH]1)NC(=O)[C@H](C)NC(=O)[C@@H](NC(=O)[C@H](CC(C)C)NC(=O)[C@H](CCC(N)=O)NC(=O)[C@H](CCCCN)NC(=O)CNC(=O)[C@H](C)NC(=O)[C@H](CC(=O)O)NC(=O)[C@H](CCCCN)NC(=O)[C@@H](NC(=O)[C@@H](NC(=O)[C@H](CC(=O)O)NC(=O)[C@H](Cc1ccccc1)NC(=O)[C@@H](NC(=O)CN)C(C)C)[C@@H](C)CC)[C@@H](C)CC)C(C)C)C(=O)N[C@@H](C)C(=O)N[C@@H](CCC(=O)O)C(=O)N[C@@H](CCCCN)C(=O)N[C@H](C(N)=O)C(C)C [GVFDIIKDAGKQLVAHAMGKIAEKV]
MIC [19]: ≥ 303 µM

MIC [20]: 2.58 µM (≈ 8 µg/mL)
MIC [21]: 10.3 µM (≈ 32 µg/mL)
MIC [22]: 5.17 µM (≈ 16 µg/mL)
MIC [23]: 1.29 µM (≈ 4 µg/mL)
MIC [24]: 2.58 µM (≈ 8 µg/mL)
MIC [25]: 5.17 µM (≈ 16 µg/mL)
MIC [13]: 2.58 µM (≈ 8 µg/mL)
Structure (SMILES): CC[C@H](C)[C@H](NC(=O)[C@H](CCCCN)NC(=O)[C@H](CCCCN)NC(=O)[C@H](Cc1ccc(O)cc1)NC(=O)[C@H](CCC(=O)O)NC(=O)[C@H](CCCN=C(N)N)NC(=O)[C@H](C)NC(=O)[C@@H](N)CC(C)C)C(=O)N[C@H](C(=O)N[C@@H](CCC(=O)O)C(=O)N[C@@H](CCCCN)C(=O)N[C@@H](CC(C)C)C(=O)N[C@@H](CCCCN)C(=O)N[C@@H](CCCN=C(N)N)C(=O)N[C@@H](Cc1c[nH]c2ccccc12)C(=O)N[C@@H](CC(C)C)C(=O)N[C@@H](CCCN=C(N)N)C(=O)N[C@@H](CCC(N)=O)C(=O)N[C@H](C(=O)N[C@@H](CC(C)C)C(=O)N[C@@H](CCCN=C(N)N)C(=O)N[C@H](C(=O)N[C@@H](CC(C)C)C(=O)N[C@@H](CCCN=C(N)N)C(=O)O)[C@@H](C)O)C(C)C)C(C)C [LAREYKKIVEKLKRWLRQVLRTLR]

MIC [26]: 7.32 µM (≈ 16 µg/mL)
MIC [27]: 7.32 µM (≈ 16 µg/mL)
Structure (SMILES): CC(C)C[C@H](NC(=O)[C@H](CCCN=C(N)N)NC(=O)[C@H](CCCCN)NC(=O)[C@H](Cc1c[nH]c2ccccc12)NC(=O)[C@H](Cc1c[nH]c2ccccc12)NC(=O)[C@H](CCCCN)NC(=O)[C@H](Cc1c[nH]c2ccccc12)NC(=O)[C@@H](N)Cc1c[nH]c2ccccc12)C(=O)N[C@@H](CCCN=C(N)N)C(=O)N[C@@H](CCCN=C(N)N)C(=O)N[C@@H](CC(C)C)C(=O)N[C@@H](Cc1ccccc1)C(=O)N[C@@H](CC(C)C)C(=O)N[C@@H](CC(C)C)C(=O)N[C@H](C(=O)O)C(C)C [WWKWWKRLRRLFLLV]

MIC [28]: 6 µM (≈ 15.7 µg/mL)
MIC [29]: 6 µM (≈ 15.7 µg/mL)
MIC [30]: 0.25 µM (≈ 0.653 µg/mL)
MIC [33]: 1 µM (≈ 2.61 µg/mL)
MIC [34]: 0.25 µM (≈ 0.653 µg/mL)
MIC [35]: 6 µM (≈ 15.7 µg/mL)
MIC [36]: 0.1 µM (≈ 0.261 µg/mL)
MIC [37]: 0.05 µM (≈ 0.131 µg/mL)
Structure (SMILES): CC[C@H](C)[C@H](NC(=O)[C@H](C)NC(=O)[C@@H](NC(=O)[C@H](C)NC(=O)CNC(=O)[C@H](CCSC)NC(=O)[C@H](CCC(N)=O)NC(=O)[C@H](CC(C)C)NC(=O)[C@H](CO)NC(=O)[C@@H](N)Cc1ccc(O)cc1)[C@@H](C)O)C(=O)N[C@@H](CCCCN)C(=O)N[C@@H](CCC(N)=O)C(=O)N[C@H](C(=O)N[C@@H](CCCCN)C(=O)N[C@@H](CCCCN)C(=O)N[C@@H](CC(C)C)C(=O)N[C@@H](Cc1ccccc1)C(=O)N[C@@H](CCCCN)C(=O)N[C@@H](CCCCN)C(=O)N[C@@H](Cc1c[nH]c2ccccc12)C(=O)NCC(=O)N[C@@H](Cc1c[nH]c2ccccc12)C(=O)O)C(C)C [YSLQMGATAIKQVKKLFKKWGW]
MIC [31]: 0.5 µM (≈ 1.31 µg/mL)
MIC [32]: 6 µM (≈ 15.7 µg/mL)
